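Five concentrations, 48 hours, 96-well plates. At the GI50, growth is halved.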 Activity calls are given as the source filed them. No stated cut-off is given here; in the data, active = GI50 up to about 1.1 µM and inactive = higher.
Key:
Assay in all cases: growth of human tumour cells (NCI), 48 h
[1] = system: HCC 2998
[2] = system: NCI-H226
[3] = system: UO-31
[4] = system: A549
[5] = system: HT-29
[6] = system: EKVX
[7] = system: MDA-MB-231
[8] = system: CAKI-1
[9] = system: SK-OV-3
[10] = system: COLO 205
[11] = system: OVCAR-8
[12] = system: SK-MEL-5
[13] = system: KM12
[14] = system: 786-0
[15] = system: UACC-257
[16] = system: IGROV-1
[17] = system: SK-MEL-28
[18] = system: M14
[19] = system: NCI-H522
[20] = system: SK-MEL-2

Measured: GI50

COc1cccc(/C=C2\S/C(=N/Nc3nc(-c4ccc([N+](=O)[O-])cc4)cs3)NC2=O)c1O
inactive: [1] 17.5 µM | [2] 14.9 µM | [3] 12.5 µM | [4] 15.9 µM | [5] 21.9 µM | [6] 17.4 µM | [7] 18.4 µM | [8] 25 µM | [9] 26.9 µM | [10] 16.4 µM | [11] 13.6 µM | [12] 12.2 µM | [13] 13.2 µM | [14] 19.9 µM | [15] 27.5 µM | [16] 11.3 µM | [17] 20.8 µM | [18] 17 µM

O=c1[nH]cnc(NC2C=C(CO)C(O)C2O)c1[N+](=O)[O-] (stereo unspecified)
inactive: [1] > 100 µM | [2] > 100 µM | [3] > 100 µM | [4] > 83.2 µM | [5] > 100 µM | [6] > 100 µM | [8] > 100 µM | [9] > 100 µM | [10] > 62.7 µM | [11] > 100 µM | [12] > 100 µM | [13] > 100 µM | [14] > 46.2 µM | [15] > 100 µM | [16] > 100 µM | [17] > 100 µM | [18] > 100 µM | [19] > 100 µM | [20] > 100 µM

CSC1NNC2(C(=O)N1)c1ccccc1-c1ccccc12 (stereo unspecified)
inactive: [1] > 10 µM | [2] > 10 µM | [3] > 10 µM | [4] > 10 µM | [5] > 10 µM | [6] 8.32 µM | [7] > 10 µM | [8] > 10 µM | [9] > 10 µM | [10] > 10 µM | [11] > 10 µM | [12] > 10 µM | [13] > 10 µM | [14] > 10 µM | [15] > 10 µM | [16] > 10 µM | [17] > 10 µM | [18] > 10 µM | [19] > 10 µM

O=C(O)C1CCCCC1C(=O)Nc1nc2ccccc2[nH]1 (stereo unspecified)
inactive: [2] > 100 µM | [3] > 100 µM | [4] > 100 µM | [5] > 100 µM | [6] 63 µM | [7] > 100 µM | [8] > 100 µM | [9] > 100 µM | [10] > 100 µM | [11] > 100 µM | [12] > 100 µM | [13] > 100 µM | [14] > 100 µM | [15] > 100 µM | [16] > 100 µM | [17] > 100 µM | [18] > 100 µM | [19] > 100 µM | [20] > 100 µM

COc1cccc(CN(C(=O)/C=C\Sc2ccccc2)C(C)(C)C)c1
inactive: [1] > 100 µM | [2] > 100 µM | [3] 48.3 µM | [4] 43.8 µM | [5] 31.1 µM | [6] 90.6 µM | [7] > 100 µM | [8] > 100 µM | [9] > 100 µM | [10] 63.7 µM | [11] > 100 µM | [12] 49 µM | [13] > 100 µM | [14] > 100 µM | [15] 41 µM | [16] 57.1 µM | [17] > 100 µM | [18] 84.7 µM | [20] 54.8 µM

CN(C)c1ccc(/N=N/c2ccncc2)cc1
inactive: [1] 22.6 µM | [2] 64.4 µM | [3] > 100 µM | [4] > 100 µM | [5] 95.1 µM | [6] 18.5 µM | [7] > 100 µM | [8] > 100 µM | [9] 40 µM | [10] 56.6 µM | [11] > 100 µM | [12] 67 µM | [13] > 100 µM | [14] > 100 µM | [15] > 100 µM | [16] > 100 µM | [17] > 100 µM | [18] > 100 µM

O=C1O/C(=C\c2ccc(O)c(Br)c2)C(c2ccc(O)c(Cl)c2)=C1Br
inactive: [1] 3.65 µM | [3] 25.7 µM | [4] 18.4 µM | [5] 12.9 µM | [6] 21.2 µM | [7] 37.3 µM | [8] 27 µM | [9] 18 µM | [10] 18.1 µM | [11] 23 µM | [12] 14.8 µM | [13] 15 µM | [14] 16.3 µM | [15] 15.8 µM | [16] 21.9 µM | [17] 16.3 µM | [18] 17.8 µM | [19] 14.4 µM | [20] 19.1 µM

CC(C)c1ccc(/C=C2\CSCC3=C2N=C2SCC(=O)N2C3c2ccc(C(C)C)cc2)cc1 (stereo unspecified)
inactive: [1] > 100 µM | [2] > 100 µM | [3] 40.4 µM | [4] > 100 µM | [5] > 100 µM | [6] > 100 µM | [7] > 100 µM | [8] > 100 µM | [9] > 100 µM | [10] > 100 µM | [11] > 100 µM | [12] > 100 µM | [13] > 100 µM | [14] > 100 µM | [15] > 100 µM | [16] > 100 µM | [17] > 100 µM | [18] > 100 µM | [20] > 100 µM

C/C(=N/NC(=S)NCCc1ccccn1)c1cnccn1
inactive: [1] 40.4 µM | [3] 16.6 µM | [4] 28.8 µM | [5] 3.78 µM | [6] 10.9 µM | [7] 26.2 µM | [8] 14.1 µM | [9] 20.1 µM | [10] 3.8 µM | [12] 27 µM | [13] 36.9 µM | [14] 14.6 µM | [15] 35.6 µM | [16] 19 µM | [17] 31 µM | [18] 24 µM | [19] 3.6 µM | [20] > 100 µM

CC(C)=CC1C(C(=O)OCc2cc3c(cc2Cl)OCO3)C1(C)C (stereo unspecified)
inactive: [1] 17 µM | [2] 39.6 µM | [3] 46.1 µM | [4] 31.5 µM | [5] 23.1 µM | [6] 13.5 µM | [7] 13.5 µM | [8] 56.1 µM | [11] 44.3 µM | [12] 16.7 µM | [13] 27.7 µM | [14] 28.4 µM | [15] 12.6 µM | [16] 20 µM | [17] 54.1 µM | [18] 36.7 µM | [19] 15.1 µM | [20] 6.4 µM

CN(C(=O)CCC(=O)O)c1ccccc1C(=O)O
inactive: [1] > 100 µM | [2] > 100 µM | [3] > 100 µM | [4] > 100 µM | [5] > 100 µM | [6] > 100 µM | [7] > 100 µM | [8] > 100 µM | [9] > 100 µM | [10] > 100 µM | [11] > 100 µM | [12] > 100 µM | [13] > 100 µM | [14] > 100 µM | [15] 40.4 µM | [16] > 100 µM | [17] > 100 µM | [18] > 100 µM | [20] > 100 µM

CN(C)Cc1cc(/N=N/c2cccc(Cl)c2)ccc1O
inactive: [1] 14.3 µM | [2] 17.4 µM | [3] 8.32 µM | [4] 15.5 µM | [5] 17 µM | [7] 9.1 µM | [8] 21.2 µM | [9] 19.9 µM | [10] 19.5 µM | [11] 14.9 µM | [12] 3.4 µM | [13] 7.08 µM | [14] 13.8 µM | [15] 14.5 µM | [16] 10.9 µM | [17] 13.6 µM | [18] 9.66 µM | [19] 11.7 µM

CC1(C)CN(c2ccccc2)C(=O)C1OC(=O)[C@@]1(C)C[C@@H]2C=C[C@H]1C2 (stereo partly specified)
inactive: [2] 23.3 µM | [3] 13.7 µM | [4] 29.6 µM | [5] 12.5 µM | [6] 28.4 µM | [7] 24.5 µM | [8] 26.5 µM | [9] 35.1 µM | [10] 19.1 µM | [11] 32.2 µM | [12] 14.9 µM | [13] 21.7 µM | [14] 21.8 µM | [15] 24.5 µM | [16] 16.9 µM | [17] 18.1 µM | [18] 22 µM | [20] 17.8 µM

O=C1NC(=O)[C@H]2C3C=CC([C@@H]12)[C@@H]1C(=O)NC(=O)[C@H]31
inactive: [1] > 100 µM | [2] > 100 µM | [3] > 100 µM | [4] > 100 µM | [6] > 100 µM | [7] > 100 µM | [8] > 100 µM | [10] > 100 µM | [11] > 100 µM | [12] > 100 µM | [14] > 100 µM | [15] > 100 µM | [16] > 100 µM | [17] > 100 µM | [18] > 100 µM | [19] > 100 µM | [20] > 100 µM

Oc1cc(-c2ccc3ccccc3c2)nc2ncc(Cl)cc12
inactive: [1] 10.2 µM | [2] 12 µM | [3] 14.4 µM | [4] 6.92 µM | [5] 5.66 µM | [6] 14.5 µM | [7] 15.6 µM | [9] 4.73 µM | [10] 3.81 µM | [11] 6.15 µM | [13] 3.79 µM | [14] 2.84 µM | [15] 9.06 µM | [16] 8.09 µM | [17] 40.9 µM | [18] 8.17 µM | [19] 4.32 µM | [20] 7.64 µM

— ChEMBL document CHEMBL1201862, “PubChem BioAssay data set” (2004)
